Laboratory results taken from PMC9743094, “Synthesis and Evaluation of Polymyxins Bearing Reductively Labile Disulfide-Linked Lipids” (Journal of Medicinal Chemistry, 2022).
In brackets after ≈: the same amount, converted by molar mass. One block for each compound: values may come before it. Positions of bridges follow the written chain, without caps; N, C: chain ends. Non-standard residues stand in square brackets, D forms with d. Residues, ends and D or L forms follow the SMILES beside them. *: point of attachment. Phenylthio(4-OPh) = c1ccc(Oc2ccc(S*)cc2)cc1; S(2-cyclohexylethyl) = C1CCC(CCS*)CC1; S(3-Methylbutyl) = CC(C)CCS*; X6 = c1ccc(-c2ccc(S*)cc2)cc1; Dab = NCC[C@H](N)C(=O)O; X4 = CCCCCCS*

Key:
[1] = tested on: E. coli (ATCC 25922); format: cell-based; settings: ATCC 25922
Procedure: (§1) Minimum inhibitory concentrations (MICs) on relevant Gram-negative bacteria were determined by broth microdilution, in accordance with CLSI guidelines. Indicated bacteria were taken from glycerol stocks and incubated overnight on blood agar at 37 °C. Well-isolated colonies were taken, suspended in TSB (5 mL), and grown to an OD600 of 0.5. Compounds to be tested were dissolved in DMSO (6.4 mg/mL), diluted in cation-adjusted Mueller–Hinton Broth (CAMHB) (12.5 and 20 μg/mL Mg^2+ and Ca^2+, respectively), and diluted serially on polypropylene microtiter plates. To the diluted compounds (50 μL per well) was added 50 μL of relevant bacterial suspension, to yield a final concentration of 10^6 CFU/mL. Plates were covered by adhesive gas-permeable membranes and incubated at 37 °C. MIC was read out as the lowest concentration that inhibited visual bacterial growth. Shown values are consistent results from at least duplicate experiments.

[2] = tested on: K. pneumoniae (ATCC 13883); format: cell-based; settings: ATCC 13883
Procedure: as §1

[3] = tested on: A. baumannii (ATCC 19606); format: cell-based; settings: ATCC 19606
Procedure: as §1

[4] = tested on: P. aeruginosa (ATCC 27853); format: cell-based; settings: ATCC 27853
Procedure: as §1

[5] = tested on: differentiated conditionally immortalized PTECs (ciPTECs, OAT-1); assay: ciPTEC toxicity assay (PrestoBlue); format: cell-based, human
Procedure: ciPTECs (OAT-1) cells,[52],[53] grown to 90–100% confluence, were washed by Hanks’ balanced salt solution (HBSS; Gibco, Life Technologies, Paisley, U.K.) and detached by accutase (4 mL) for 5 min at 37 °C. The cells were then suspended in fresh medium (DMEM/F-12, supplemented with 10% fetal calf serum, insulin (5 μg/mL), transferrin (5 μg/mL), selenium (5 μg/mL) hydrocortisone (35 ng/mL), Epidermal Growth Factor (10 ng/mL) and tri-iodothyronine (40 pg/mL)). Cell density was adjusted to 2.0 × 10^5 cells/mL, of which 100 μL was added to each well of a 96-well plate. The cells were incubated for 24 h at 33 °C, followed by 6 days at 37 °C, in a humidified atmosphere containing 5% (v/v) CO2. The medium was refreshed every second or third day.
Compounds were dissolved and serially diluted in serum-free medium. Differentiated cells were washed once with HBSS and serially diluted compounds (80 μL/well) were transferred to the ciPTEC-containing plate. Compounds were incubated for 24 h at 37 °C; the cells were washed by HBSS, followed by incubation with 10% PrestoBlue cell viability reagent (Thermo Scientific, Vienna, Austria) in HBSS at 37 °C in the dark. Fluorescence was recorded (excitation: 530 nm, emission: 590 nm). Raw data are corrected for PrestoBlue background fluorescence and reported relative to the no-treatment control (cells with medium only). Viability data were fitted with GraphPad Prism software (version 5.03; GraphPad Software, La Jolla, CA), by nonlinear regression with 0 as bottom constraint. Presented data are based on triplicates.
Toxicity assessment on PTECs
Table S1. TC50 values for polymyxin analogues. Toxicity assessment on proximal tubular epithelial cells
performed using PrestoBlue™ assay. TC50 values are derived after non-linear regression analysis on cell viability
correspond to data obtained from 2 different batches of cells/analyses on different days. As the value for
polymyxin B differs 2-fold, values in the manuscript are presented relative to the polymyxin B value.
Compound TC50 (µ M) Compound TC50 (µ M)
Polymyxin B 80 Polymyxin B 41
Figure S3. Representative traces of ciPTECs’ viability after incubation with analogues for 24 hours. Shown data are based on […]

SMILES: CC(C)C[C@@H]1NC(=O)[C@@H](Cc2ccccc2)NC(=O)[C@H](CCN)NC(=O)[C@@H](NC(=O)[C@H](CCN)NC(=O)[C@@H](NC(=O)[C@@H](N)CSSCCC2CCCCC2)[C@@H](C)O)CCNC(=O)[C@H]([C@@H](C)O)NC(=O)[C@H](CCN)NC(=O)[C@H](CCN)NC1=O [Compound 19a] (H-C(S(2-cyclohexylethyl))T[Dab][Dab][Dab][dF]L[Dab][Dab]T; lactam 4-C)
MIC E. coli (ATCC 25922) [1]: 8 µg/mL (≈ 6.62 µM) | MIC K. pneumoniae (ATCC 13883) [2]: 4 µg/mL (≈ 3.31 µM) | MIC A. baumannii (ATCC 19606) [3]: 32 µg/mL (≈ 26.5 µM) | MIC P. aeruginosa (ATCC 27853) [4]: 4 µg/mL (≈ 3.31 µM)

SMILES: CC(C)CCSSC[C@H](NC(=O)CN)C(=O)N[C@H](C(=O)N[C@@H](CCN)C(=O)N[C@H]1CCNC(=O)[C@H]([C@@H](C)O)NC(=O)[C@H](CCN)NC(=O)[C@H](CCN)NC(=O)[C@H](CC(C)C)NC(=O)[C@@H](Cc2ccccc2)NC(=O)[C@H](CCN)NC1=O)[C@@H](C)O [Compound 22a] (H-GC(S(3-Methylbutyl))T[Dab][Dab][Dab][dF]L[Dab][Dab]T; lactam 5-C)
TC50, Day 1 [5]: 305 µM | ciPTEC Toxicity Index (relative to polymyxin B) [5]: 3.8 | MIC K. pneumoniae (ATCC 13883) [2]: 2 µg/mL (≈ 1.63 µM) | MIC A. baumannii (ATCC 19606) [3]: 4 µg/mL (≈ 3.26 µM) | MIC P. aeruginosa (ATCC 27853) [4]: 2 µg/mL (≈ 1.63 µM)

SMILES: CC(C)C[C@@H]1NC(=O)[C@@H](Cc2ccccc2)NC(=O)[C@H](CCN)NC(=O)[C@@H](NC(=O)[C@H](CCN)NC(=O)[C@@H](NC(=O)[C@H](N)CSSc2ccc(-c3ccccc3)cc2)[C@@H](C)O)CCNC(=O)[C@H]([C@@H](C)O)NC(=O)[C@H](CCN)NC(=O)[C@H](CCN)NC1=O [Compound 29b] (H-[dC](X6)T[Dab][Dab][Dab][dF]L[Dab][Dab]T; lactam 4-C)
MIC E. coli (ATCC 25922) [1]: 8 µg/mL (≈ 6.4 µM) | MIC K. pneumoniae (ATCC 13883) [2]: 2 µg/mL (≈ 1.6 µM) | MIC A. baumannii (ATCC 19606) [3]: 8 µg/mL (≈ 6.4 µM) | MIC P. aeruginosa (ATCC 27853) [4]: 8 µg/mL (≈ 6.4 µM)

SMILES: CCCCCCSSC[C@H](NC(=O)CN)C(=O)N[C@H](C(=O)N[C@@H](CCN)C(=O)N[C@H]1CCNC(=O)[C@H]([C@@H](C)O)NC(=O)[C@H](CCN)NC(=O)[C@H](CCN)NC(=O)[C@H](CC(C)C)NC(=O)[C@@H](Cc2ccccc2)NC(=O)[C@H](CCN)NC1=O)[C@@H](C)O [Compound 21a] (H-GC(X4)T[Dab][Dab][Dab][dF]L[Dab][Dab]T; lactam 5-C)
MIC E. coli (ATCC 25922) [1]: 4 µg/mL (≈ 3.23 µM) | MIC K. pneumoniae (ATCC 13883) [2]: 1 µg/mL (≈ 0.807 µM) | MIC A. baumannii (ATCC 19606) [3]: 2 µg/mL (≈ 1.61 µM) | MIC P. aeruginosa (ATCC 27853) [4]: 2 µg/mL (≈ 1.61 µM)

SMILES: CC(C)C[C@@H]1NC(=O)[C@@H](Cc2ccccc2)NC(=O)[C@H](CCN)NC(=O)[C@@H](NC(=O)[C@H](CCN)NC(=O)[C@@H](NC(=O)[C@@H](N)CSSc2ccc(-c3ccccc3)cc2)[C@@H](C)O)CCNC(=O)[C@H]([C@@H](C)O)NC(=O)[C@H](CCN)NC(=O)[C@H](CCN)NC1=O [Compound 29a] (H-C(X6)T[Dab][Dab][Dab][dF]L[Dab][Dab]T; lactam 4-C)
MIC E. coli (ATCC 25922) [1]: 4 µg/mL (≈ 3.2 µM) | MIC K. pneumoniae (ATCC 13883) [2]: 4 µg/mL (≈ 3.2 µM) | MIC A. baumannii (ATCC 19606) [3]: 32 µg/mL (≈ 25.6 µM) | MIC P. aeruginosa (ATCC 27853) [4]: 8 µg/mL (≈ 6.4 µM)

Further lines, results first:

MIC E. coli (ATCC 25922) [1]: 8 µg/mL (≈ 6.04 µM) | MIC K. pneumoniae (ATCC 13883) [2]: 4 µg/mL (≈ 3.02 µM) | MIC A. baumannii (ATCC 19606) [3]: 32 µg/mL (≈ 24.2 µM) | MIC P. aeruginosa (ATCC 27853) [4]: 8 µg/mL (≈ 6.04 µM)
SMILES: CC(C)C[C@@H]1NC(=O)[C@@H](Cc2ccccc2)NC(=O)[C@H](CCN)NC(=O)[C@@H](NC(=O)[C@H](CCN)NC(=O)[C@@H](NC(=O)[C@H](CSSc2ccc(Oc3ccccc3)cc2)NC(=O)CN)[C@@H](C)O)CCNC(=O)[C@H]([C@@H](C)O)NC(=O)[C@H](CCN)NC(=O)[C@H](CCN)NC1=O [Compound 32a] (H-GC(Phenylthio(4-OPh))T[Dab][Dab][Dab][dF]L[Dab][Dab]T; lactam 5-C)

MIC E. coli (ATCC 25922) [1]: 4 µg/mL (≈ 3.06 µM) | MIC K. pneumoniae (ATCC 13883) [2]: 2 µg/mL (≈ 1.53 µM) | MIC A. baumannii (ATCC 19606) [3]: 16 µg/mL (≈ 12.2 µM) | MIC P. aeruginosa (ATCC 27853) [4]: 8 µg/mL (≈ 6.12 µM)
SMILES: CC(C)C[C@@H]1NC(=O)[C@@H](Cc2ccccc2)NC(=O)[C@H](CCN)NC(=O)[C@@H](NC(=O)[C@H](CCN)NC(=O)[C@@H](NC(=O)[C@H](CSSc2ccc(-c3ccccc3)cc2)NC(=O)CN)[C@@H](C)O)CCNC(=O)[C@H]([C@@H](C)O)NC(=O)[C@H](CCN)NC(=O)[C@H](CCN)NC1=O [Compound 31a] (H-GC(X6)T[Dab][Dab][Dab][dF]L[Dab][Dab]T; lactam 5-C)

MIC E. coli (ATCC 25922) [1]: 4 µg/mL (≈ 3.16 µM) | MIC K. pneumoniae (ATCC 13883) [2]: 4 µg/mL (≈ 3.16 µM) | MIC A. baumannii (ATCC 19606) [3]: >32 µg/mL | MIC P. aeruginosa (ATCC 27853) [4]: 4 µg/mL (≈ 3.16 µM)
SMILES: CC(C)C[C@@H]1NC(=O)[C@@H](Cc2ccccc2)NC(=O)[C@H](CCN)NC(=O)[C@@H](NC(=O)[C@H](CCN)NC(=O)[C@@H](NC(=O)[C@@H](N)CSSc2ccc(Oc3ccccc3)cc2)[C@@H](C)O)CCNC(=O)[C@H]([C@@H](C)O)NC(=O)[C@H](CCN)NC(=O)[C@H](CCN)NC1=O [Compound 30a] (H-C(Phenylthio(4-OPh))T[Dab][Dab][Dab][dF]L[Dab][Dab]T; lactam 4-C)

MIC E. coli (ATCC 25922) [1]: 8 µg/mL (≈ 6.04 µM) | MIC K. pneumoniae (ATCC 13883) [2]: 4 µg/mL (≈ 3.02 µM) | MIC A. baumannii (ATCC 19606) [3]: 8 µg/mL (≈ 6.04 µM) | MIC P. aeruginosa (ATCC 27853) [4]: 4 µg/mL (≈ 3.02 µM)
SMILES: CC(C)C[C@@H]1NC(=O)[C@@H](Cc2ccccc2)NC(=O)[C@H](CCN)NC(=O)[C@@H](NC(=O)[C@H](CCN)NC(=O)[C@@H](NC(=O)[C@@H](CSSc2ccc(Oc3ccccc3)cc2)NC(=O)CN)[C@@H](C)O)CCNC(=O)[C@H]([C@@H](C)O)NC(=O)[C@H](CCN)NC(=O)[C@H](CCN)NC1=O [Compound 32b] (H-G[dC](Phenylthio(4-OPh))T[Dab][Dab][Dab][dF]L[Dab][Dab]T; lactam 5-C)

MIC E. coli (ATCC 25922) [1]: 8 µg/mL (≈ 6.12 µM) | MIC K. pneumoniae (ATCC 13883) [2]: 4 µg/mL (≈ 3.06 µM) | MIC A. baumannii (ATCC 19606) [3]: 16 µg/mL (≈ 12.2 µM) | MIC P. aeruginosa (ATCC 27853) [4]: 8 µg/mL (≈ 6.12 µM)
SMILES: CC(C)C[C@@H]1NC(=O)[C@@H](Cc2ccccc2)NC(=O)[C@H](CCN)NC(=O)[C@@H](NC(=O)[C@H](CCN)NC(=O)[C@@H](NC(=O)[C@@H](CSSc2ccc(-c3ccccc3)cc2)NC(=O)CN)[C@@H](C)O)CCNC(=O)[C@H]([C@@H](C)O)NC(=O)[C@H](CCN)NC(=O)[C@H](CCN)NC1=O [Compound 31b] (H-G[dC](X6)T[Dab][Dab][Dab][dF]L[Dab][Dab]T; lactam 5-C)

MIC E. coli (ATCC 25922) [1]: 4 µg/mL (≈ 3.16 µM) | MIC K. pneumoniae (ATCC 13883) [2]: 2 µg/mL (≈ 1.58 µM) | MIC A. baumannii (ATCC 19606) [3]: 4 µg/mL (≈ 3.16 µM) | MIC P. aeruginosa (ATCC 27853) [4]: 4 µg/mL (≈ 3.16 µM)
SMILES: CC(C)C[C@@H]1NC(=O)[C@@H](Cc2ccccc2)NC(=O)[C@H](CCN)NC(=O)[C@@H](NC(=O)[C@H](CCN)NC(=O)[C@@H](NC(=O)[C@H](N)CSSc2ccc(Oc3ccccc3)cc2)[C@@H](C)O)CCNC(=O)[C@H]([C@@H](C)O)NC(=O)[C@H](CCN)NC(=O)[C@H](CCN)NC1=O [Compound 30b] (H-[dC](Phenylthio(4-OPh))T[Dab][Dab][Dab][dF]L[Dab][Dab]T; lactam 4-C)
